Test results: the Kinase Knowledgebase extract (Sharma et al. 2016)
pIC50: −log10 of the molar value.

How the values were obtained:
[1] = target: EGFR (human) (UniProt P00533); conditions: a431
[2] = target: EGFR (human) (UniProt P00533); conditions: a549
[3] = target: EGFR (human) (UniProt P00533); conditions: snu638
[4] = target: EGFR (human) (UniProt P00533)

Chain of EGFR (human) (P00533 whole entry, looked up): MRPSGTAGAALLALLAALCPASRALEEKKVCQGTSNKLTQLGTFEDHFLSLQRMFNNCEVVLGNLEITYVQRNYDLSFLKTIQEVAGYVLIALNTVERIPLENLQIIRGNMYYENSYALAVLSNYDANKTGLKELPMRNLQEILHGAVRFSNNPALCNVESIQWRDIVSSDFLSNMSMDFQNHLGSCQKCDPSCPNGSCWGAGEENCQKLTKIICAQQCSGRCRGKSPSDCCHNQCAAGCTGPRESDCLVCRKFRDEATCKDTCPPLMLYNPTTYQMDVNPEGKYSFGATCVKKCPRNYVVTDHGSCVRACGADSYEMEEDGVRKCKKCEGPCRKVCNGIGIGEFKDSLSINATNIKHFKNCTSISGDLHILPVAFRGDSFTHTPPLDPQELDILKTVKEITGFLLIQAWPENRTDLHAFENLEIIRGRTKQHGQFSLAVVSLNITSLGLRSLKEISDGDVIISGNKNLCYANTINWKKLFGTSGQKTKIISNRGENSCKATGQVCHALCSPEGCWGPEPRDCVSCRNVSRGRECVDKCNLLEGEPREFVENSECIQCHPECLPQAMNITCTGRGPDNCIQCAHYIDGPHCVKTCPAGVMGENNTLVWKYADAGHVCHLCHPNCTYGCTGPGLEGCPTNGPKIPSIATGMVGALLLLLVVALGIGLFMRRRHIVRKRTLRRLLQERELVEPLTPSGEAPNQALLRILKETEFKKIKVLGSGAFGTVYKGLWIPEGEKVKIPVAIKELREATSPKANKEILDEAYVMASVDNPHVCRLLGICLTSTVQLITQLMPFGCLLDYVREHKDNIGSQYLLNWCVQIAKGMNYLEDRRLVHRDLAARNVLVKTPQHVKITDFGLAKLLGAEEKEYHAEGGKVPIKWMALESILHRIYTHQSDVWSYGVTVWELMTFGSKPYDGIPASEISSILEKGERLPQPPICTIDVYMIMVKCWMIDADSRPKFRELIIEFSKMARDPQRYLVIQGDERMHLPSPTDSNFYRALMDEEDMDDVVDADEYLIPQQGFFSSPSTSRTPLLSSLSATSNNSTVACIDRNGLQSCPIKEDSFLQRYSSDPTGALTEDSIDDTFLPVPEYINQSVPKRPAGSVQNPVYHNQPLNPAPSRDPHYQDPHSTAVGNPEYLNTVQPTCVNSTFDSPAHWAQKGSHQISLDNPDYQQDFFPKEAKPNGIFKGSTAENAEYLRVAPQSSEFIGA

SMILES | GI50 [1] | GI50 [2] | GI50 [3] | pIC50 [4]
FC(F)(F)c1cccc(Nc2ncnc3cc4c(cc23)OCCO4)c1 | 140 nM | 2240 nM | 2750 nM | 
c1ccc(Nc2ncnc3cc4c(cc23)OCCO4)cc1 | 3800 nM | 45700 nM | 55000 nM | 
Fc1ccc(Nc2ncnc3cc4c(cc23)OCCO4)cc1 | 1290 nM | 40700 nM | 49000 nM | 7.11
Fc1cc(Nc2ncnc3cc4c(cc23)OCCO4)ccc1Cl | 490 nM | 75900 nM | > 100000 nM | 
Clc1cccc(Nc2ncnc3cc4c(cc23)OCCO4)c1 | 190 nM | 4270 nM | 4680 nM | 8.08
Cc1cc(C)cc(Nc2ncnc3cc4c(cc23)OCCO4)c1 | 120 nM | 230 nM | 170 nM | 
Ic1cccc(Nc2ncnc3cc4c(cc23)OCCO4)c1 | 1550 nM | 5620 nM | 6170 nM | 7.20
Brc1cccc(Nc2ncnc3cc4c(cc23)OCCO4)c1 | 200 nM | 4370 nM | 5750 nM | 7.75
